Each block holds one molecule with its values, some of them ahead of it.
Tests used:
[1] = Clin. Cancer Res. 10:5233-5241 (2004); cited from earlier work
[2] = system: Moderate-to-Severe TBI in the Sprague Dawley Rat; assay: Extracellular Vesicle (EV) isolation and measurement after lateral fluid percussion TBI; format: in vivo; conditions: plasma EVs 1 day post-surgery, NTA
Text: (§1) Evaluation of 3,3′-diindolylmethane (DIM) in a clinically relevant animal model of Traumatic Brain Injury (TBI) utilized the Lateral Fluid Percussion (LFP) brain injury method. LFP is the most established and frequently used method for evaluating mixed focal and diffuse brain injury (Thompson H J, Lifshitz J, Marklund N, Grady M S, Graham D I, Hovda D A, McIntosh T K. Lateral fluid percussion brain injury: a 15-year review and evaluation. J Neurotrauma. 2005 January; 22(1):42-75.). Using rats, the parasagittal LFP model recreates the physiological, pathological, and neurobehavioral sequela of TBI in humans. […] Over the days following surgery, rats were assessed for sensorimotor deficits, associative learning and memory, cortical and hippocampal edema, Extracellular Vesicle (EV) levels, and histopathological damage. […]
(§2) Approximately 12-24 h after the preparation surgery, the rats were anesthetized with 3% isoflurane, 70% nitrous oxide and 30% oxygen, intubated, connected to a respirator, and ventilated to be maintained on 1-3% isoflurane in a mixture of 70% nitrous oxide and oxygen. […] Following administration of pancuronium, TBI DIM Premix and Vehicle group rats inspired oxygen was reduced to 21% to maintain blood pO2 levels at approximately 85-95 mmHg. pCO2 levels were monitored to remain at physiological levels of 34 to 46 mmHg. […]

[3] = system: Moderate-to-Severe TBI in the Sprague Dawley Rat; assay: Histology analysis (H&E, NeuN) after lateral fluid percussion TBI; format: in vivo; conditions: 10 days post FPI
Text: as §1, §2

[4] = Eur. J. Pharmacol. 2022; 919:174812; cited from earlier work
[5] = Solubility of aripiprazole in the SMEDDS DIM formulation

SMILES: OCc1c[nH]c2ccccc12 [indole-3-carbinol]
Conversion in vivo [1]: converts to DIM and LTR in vivo

SMILES: c1ccc2c(Cc3c[nH]c4ccccc34)c[nH]c2c1 [DIM, 3,3′-diindolylmethane]
EV concentration (numbers) ([2]; versus TBI Vehicle, p=0.0415): prevented the significant increase in EV numbers
EV particle size ([2]; versus untreated TBI animals, p=0.0117): maintenance of a larger EV particle size
Animals with cortical contusion absent [3]: 50%
Anti-thrombotic activity [4]: anti-thrombotic activity
Bleeding time [4]: prolong bleeding time

Solubility of the aripiprazole in the SMEDDS DIM formulation [5]: approximately 1.5%
Dissolution of aripiprazole in SMEDDS DIM, observation ([5]; 1.2% (10 mg aripiprazole, 0.81 grams SMEDDS DIM), stored overnight, warmed to about 35 degrees C.): all had dissolved
Aripiprazole still in suspension ([5]; 2.0% (10 mg aripiprazole, 0.49 grams SMEDDS DIM)): less than 2 mg
Dissolution of aripiprazole in SMEDDS DIM, observation ([5]; 2.0% (10 mg aripiprazole, 0.49 grams SMEDDS DIM), stored overnight, warmed to about 35 degrees C.): had not quite dissolved
Dissolution of aripiprazole in SMEDDS DIM, observation ([5]; 5.0% (25 mg aripiprazole, 0.475 grams SMEDDS DIM)): white solids clearly present
Dissolution of aripiprazole in SMEDDS DIM, observation ([5]; 10% (50 mg aripiprazole, 0.45 grams SMEDDS DIM)): white solids clearly present
Dose of aripiprazole that can be dissolved ([5]; in standard dose of 100 mg DIM contained in 825 mg of the SMEDDS DIM): up to 10 mg
SMILES: O=C1CCc2ccc(OCCCCN3CCN(c4cccc(Cl)c4Cl)CC3)cc2N1 [aripiprazole]

From patent US12171745B2, “Compositions and methods for treating non-hemorrhagic closed head injury” (Boulder BioScience LLC, priority 2022, dated 2024)
